{
  "source": "patent US6410533B1",
  "about": "“Antibacterial compounds” (Genzyme Corporation, priority 2000, dated 2002)",
  "key": {"[1]": {"tested_on": "Staphylococcus aureus bacteria (ATCC 9604 SV)", "test": "Minimal inhibitory concentration (MIC), broth microdilution", "type": "cell-based", "details": "24 h at 37° C.", "in_short": "(§1)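 MIC: broth microdilution per NCCLS in Mueller-Hinton broth; overnight culture adjusted to 0.05 McFarland and diluted twenty-fold into compound-containing broth. IC50: inoculum at 0.1 McFarland diluted two-fold into TB broth with compound, 3–5 h at 37° C. Turbidity at 550 nm; IC50 is the concentration giving 50% growth inhibition.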"}, "[2]": {"tested_on": "Staphylococcus aureus bacteria (ATCC 9604 SV)", "test": "IC50 determination, growth inhibition by turbidity at 550 nm", "type": "cell-based", "details": "Staphylococcus aureus ATCC 9604 SV, turbidity at 550 nm after 3-5 h at 37° C.", "in_short": "as §1"}, "[3]": {"tested_on": "methicillin-resistant Staphylococcus aureus (ATCC 33591)", "test": "In vivo mouse intraperitoneal infection, mortality and % survivors over 7 days", "details": "MRSA ATCC 33591 i.p., ICR mice; for In Vivo, single dose (% of mice rescued): single dose 1 h post inoculation; for In Vivo, double dose (% of mice rescued): 1 and 5 h post inoculation", "in_short": "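Male ICR mice (20 g, 10 per group) were infected i.p. with 2-3×10^7 CFU/mouse (LD90-100) of MRSA ATCC 33591 in broth with 5% mucin. Compound in 1% cremophore EL/saline was given s.c. at 1 h, or at 1 and 5 h, post-infection. Mortality and % survivors were recorded over 7 days.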"}, "[4]": {"details": "ATCC9604, Staphylococcus aureus ATCC 9604 SV, read-out: MIC"}, "[5]": {"details": "Staphylococcus aureus ATCC 9604 SV"}},
  "note": "Where two headings read alike, the source gives them in different places.",
  "data": [
    {"smiles": "O=C(Nc1cc(C(F)(F)F)cc(C(F)(F)F)c1)Nc1cc(-c2ccccc2)nn1-c1ccc(C(F)(F)F)cc1", "note": "[Compound 76, 1-(3,5-Bis-trifluoromethyl-phenyl)-3-[5-phenyl-2-(4-trifluoromethyl-phenyl)-2H-pyrazol-3-yl]-urea]", "values": [
      {"measurement": "MIC", "setting": "[1]; [4]", "value": "< 0.838", "unit": "µg/mL"},
      {"measurement": "IC50", "setting": "[2]; ATCC9604", "value": 54, "unit": "nM"},
      {"measurement": "In Vivo, single dose (% of mice rescued)", "setting": "[3]; 2 mg/kg s.c.", "value": 0, "unit": "% @ 2 mg/kg"},
      {"measurement": "In Vivo, single dose (% of mice rescued)", "setting": "[3]; 20 mg/kg s.c.", "value": 0, "unit": "% @ 20 mg/kg"}
    ]},
    {"smiles": "O=C1CC(c2ccccc2)=NN1c1ccc(Cl)c(Cl)c1", "note": "[Compound 2]", "values": [
      {"measurement": "MIC", "setting": "[1]; [5]", "value": 1.91, "unit": "µg/mL"},
      {"measurement": "IC50", "setting": "[2]", "value": 449, "unit": "nM"},
      {"measurement": "In Vivo, double dose (% of mice rescued)", "setting": "[3]; 2 × 2 mg/kg s.c.", "value": 0, "unit": "% @ 2 × 2 mg/kg"},
      {"measurement": "In Vivo, double dose (% of mice rescued)", "setting": "[3]; 2 × 20 mg/kg s.c.", "value": 0, "unit": "% @ 2 × 20 mg/kg"}
    ]},
    {"smiles": "O=C(Nc1cc(C(F)(F)F)cc(C(F)(F)F)c1)Nc1cc(CO)nn1-c1ccc(Br)cc1", "note": "[Compound 99, 1-(3,5-Bis-trifluoromethyl-phenyl)-3-[2-(4-bromo-phenyl)-5-hydroxymethyl-2H-pyrazol-3-yl]-urea]", "values": [
      {"measurement": "MIC", "setting": "[1]; [4]", "value": 6.54, "unit": "µg/mL"},
      {"measurement": "IC50", "setting": "[2]; ATCC9604", "value": 4240, "unit": "nM"},
      {"measurement": "In Vivo, double dose (% of mice rescued)", "setting": "[3]; 2 × 2 mg/kg s.c.", "value": 33, "unit": "% @ 2 × 2 mg/kg"},
      {"measurement": "In Vivo, double dose (% of mice rescued)", "setting": "[3]; 2 × 20 mg/kg s.c.", "value": 33, "unit": "% @ 2 × 20 mg/kg"}
    ]},
    {"smiles": "CCOC(=O)c1cc(NC(=O)Nc2cc(C(F)(F)F)cc(C(F)(F)F)c2)n(-c2ccc(Br)cc2)n1", "note": "[Compound 98]", "values": [
      {"measurement": "MIC", "setting": "[1]; [5]", "value": ">14.1", "unit": "µg/mL"},
      {"measurement": "IC50", "setting": "[2]", "value": 3100, "unit": "nM"},
      {"measurement": "In Vivo, double dose (% of mice rescued)", "setting": "[3]; 2 × 2 mg/kg s.c.", "value": 0, "unit": "% @ 2 × 2 mg/kg"},
      {"measurement": "In Vivo, double dose (% of mice rescued)", "setting": "[3]; 2 × 20 mg/kg s.c.", "value": 33, "unit": "% @ 2 × 20 mg/kg"}
    ]},
    {"smiles": "O=C(Nc1ccc(F)c(C(F)(F)F)c1)Nc1nc(-c2ccc(F)c(F)c2)cs1", "note": "[Compound 168]", "values": [
      {"measurement": "MIC", "setting": "[1]; [5]", "value": "<0.626", "unit": "µg/mL"},
      {"measurement": "IC50", "setting": "[2]", "value": 180, "unit": "nM"},
      {"measurement": "In Vivo, single dose (% of mice rescued)", "setting": "[3]; 2 mg/kg s.c.", "value": 0, "unit": "% @ 2 mg/kg"},
      {"measurement": "In Vivo, single dose (% of mice rescued)", "setting": "[3]; 20 mg/kg s.c.", "value": 0, "unit": "% @ 20 mg/kg"}
    ]},
    {"smiles": "O=C(Nc1cc(Cl)cc(Cl)c1)Nc1cc(-c2ccccc2)nn1-c1ccc(Cl)cc1", "note": "[Compound 91]", "values": [
      {"measurement": "MIC", "setting": "[1]; [5]", "value": ">22.9", "unit": "µg/mL"},
      {"measurement": "IC50", "setting": "[2]", "value": 148, "unit": "nM"},
      {"measurement": "In Vivo, single dose (% of mice rescued)", "setting": "[3]; 2 mg/kg s.c.", "value": 0, "unit": "% @ 2 mg/kg"},
      {"measurement": "In Vivo, single dose (% of mice rescued)", "setting": "[3]; 20 mg/kg s.c.", "value": 0, "unit": "% @ 20 mg/kg"}
    ]},
    {"smiles": "O=C(Nc1cc(C(F)(F)F)cc(C(F)(F)F)c1)Nc1nc(-c2ccc(F)c(F)c2)cs1", "note": "[Compound 151]", "values": [
      {"measurement": "MIC", "setting": "[1]; [5]", "value": 1.40, "unit": "µg/mL"},
      {"measurement": "IC50", "setting": "[2]", "value": 132, "unit": "nM"},
      {"measurement": "In Vivo, single dose (% of mice rescued)", "setting": "[3]; 2 mg/kg s.c.", "value": 0, "unit": "% @ 2 mg/kg"},
      {"measurement": "In Vivo, single dose (% of mice rescued)", "setting": "[3]; 20 mg/kg s.c.", "value": 0, "unit": "% @ 20 mg/kg"}
    ]},
    {"smiles": "O=C(Nc1cc(Cl)cc(Cl)c1)Nc1cc(-c2cccnc2)nn1-c1ccc(Br)cc1", "note": "[Compound 116]", "values": [
      {"measurement": "MIC", "setting": "[1]; [5]", "value": 3.02, "unit": "µg/mL"},
      {"measurement": "IC50", "setting": "[2]", "value": 391, "unit": "nM"},
      {"measurement": "In Vivo, single dose (% of mice rescued)", "setting": "[3]; 2 mg/kg s.c.", "value": 0, "unit": "% @ 2 mg/kg"},
      {"measurement": "In Vivo, single dose (% of mice rescued)", "setting": "[3]; 20 mg/kg s.c.", "value": 0, "unit": "% @ 20 mg/kg"}
    ]}
  ]
}
